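Five concentrations, 48 hours, 96-well plates. GI50 is the concentration that inhibits growth by half.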 The source made the active and inactive calls. No stated cut-off is given here; in the data, active = GI50 up to about 1.1 µM and inactive = higher.
Legend:
Test in all cases: NCI tumour cell line growth inhibition, 48 h
SNB-19 = tested on: SNB-19
HL-60 = tested on: HL-60
K562 = tested on: K562
SNB-75 = tested on: SNB-75
LOX IMVI = tested on: LOX IMVI
MOLT-4 = tested on: MOLT-4
NCI-H460 = tested on: NCI-H460
SK-MEL-28 = tested on: SK-MEL-28
HCT-116 = tested on: HCT-116
CCRF-CEM = tested on: CCRF-CEM
IGROV-1 = tested on: IGROV-1
HOP-92 = tested on: HOP-92
UACC-257 = tested on: UACC-257
SK-OV-3 = tested on: SK-OV-3
OVCAR-4 = tested on: OVCAR-4
SK-MEL-5 = tested on: SK-MEL-5
SW-620 = tested on: SW-620
OVCAR-3 = tested on: OVCAR-3
NCI-H23 = tested on: NCI-H23
EKVX = tested on: EKVX

Measured: GI50

CCP(=S)(CC)CCl
inactive: SNB-19 > 100 µM | HL-60 > 100 µM | K562 > 100 µM | SNB-75 > 100 µM | LOX IMVI > 100 µM | MOLT-4 > 10 µM | NCI-H460 > 100 µM | SK-MEL-28 > 100 µM | HCT-116 > 100 µM | CCRF-CEM > 100 µM | IGROV-1 > 100 µM | HOP-92 73.5 µM | UACC-257 > 100 µM | SK-OV-3 > 100 µM | OVCAR-4 > 100 µM | SK-MEL-5 > 100 µM | SW-620 > 100 µM | OVCAR-3 > 100 µM | NCI-H23 > 100 µM

CN(C)CCNC(=O)c1cccc2nc(-c3ccccc3)oc12
inactive: SNB-19 19.7 µM | HL-60 8.18 µM | K562 1.94 µM | SNB-75 13.5 µM | LOX IMVI 26.5 µM | MOLT-4 10.9 µM | NCI-H460 30.4 µM | SK-MEL-28 60.1 µM | EKVX 6.97 µM | HCT-116 32.1 µM | CCRF-CEM 45.6 µM | IGROV-1 44 µM | HOP-92 13 µM | UACC-257 36.3 µM | SK-OV-3 34.4 µM | OVCAR-4 26.5 µM | SK-MEL-5 22.3 µM | SW-620 39.2 µM | OVCAR-3 41.9 µM | NCI-H23 48.3 µM

CCOC(=O)C1=NN(c2ccccc2)C2=CC(C)=NN(C)C(=S)N21
inactive: SNB-19 > 100 µM | HL-60 > 100 µM | K562 > 100 µM | SNB-75 > 100 µM | LOX IMVI > 100 µM | MOLT-4 > 100 µM | NCI-H460 48.5 µM | SK-MEL-28 > 100 µM | EKVX > 100 µM | HCT-116 > 100 µM | CCRF-CEM > 100 µM | IGROV-1 > 100 µM | HOP-92 > 100 µM | UACC-257 > 100 µM | SK-OV-3 > 100 µM | OVCAR-4 > 100 µM | SK-MEL-5 > 100 µM | SW-620 > 100 µM | OVCAR-3 > 100 µM | NCI-H23 > 100 µM

CC(=O)OC1CC[C@@]2(C)C(=CC[C@@H]3[C@@H]2CC[C@]2(C)Nc4nn(S(C)(=O)=O)cc4C[C@@H]32)C1 (stereo partly drawn)
inactive: SNB-19 79.4 µM | HL-60 > 10 µM | K562 12.1 µM | SNB-75 24.2 µM | MOLT-4 16.1 µM | NCI-H460 18.7 µM | SK-MEL-28 28.4 µM | CCRF-CEM 10.6 µM | IGROV-1 73.6 µM | HOP-92 49.5 µM | SK-OV-3 > 100 µM | SK-MEL-5 15.2 µM | OVCAR-3 24.2 µM | NCI-H23 35.1 µM

Source: ChEMBL document CHEMBL1201862, “PubChem BioAssay data set” (2004)
